Measured values as given in patent publication US20260207504A1, “STABILIZATION OF LIPID NANOPARTICLE FORMULATIONS” (Eli Lilly and Company, priority 2022, published 2026).

Assay: Lipid chemical stability in PBS or histidine buffer solution (LC-MS)
Assay type: physicochemical
Settings: for primary degradation pathway: LC-MS; for stability in BT5933 glass vials relative to COP vials: diluted with PBS buffer
Protocol: Stock MC3 lipidic solutions were prepared by dissolving MC3 in an ethanolic solution to a final concentration of 4 mg/mL (e.g., 6 mM). Similarly, stock lipidic DOTAP solutions were prepared by dissolving DOTAP in an ethanolic solution to a final concentration of 4 mg/mL. Stock solutions of phosphate buffered saline (1×, pH 7.4) were used. Final lipidic solutions were prepared by mixing PBS stock to the lipidic stock in a ratio of 3:1 (e.g., PBS stock:DOTAP stock in ethanol=3:1; PBS stock:MC3 stock in ethanol=3:1). Solutions were stored in either glass (BT5933) or polymer (COP) vials.
Dilute lipidic solutions were frozen at −70° C. before being thawed and stored at either 5° C., 25° C., or 40° C. for either 1 week, 2 weeks, or 4 weeks. At each timepoint, (e.g., after 1 week, 2 weeks, or 4 weeks) the lipid solution was analyzed via LC-MS to determine the extent of hydrolysis and/or oxidation present.
MC3 and DOTAP lipids were prepared using either PBS or Histidine buffers. Ethanolic stock solutions of MC3 and DOTAP were prepared as described in Example 1. PBS-based solutions were prepared by diluting the stock lipid solutions, respectively, by 3:1 (PBS:lipid in ethanol (vol/vol)) using 1× PBS, pH 7.4. Histidine-based solutions were also prepared by diluting the stock lipidic solution by 3:1 (histidine:lipid in ethanol vol/vol) using a histidine buffer (10 mM, pH 6.0). Solutions were filled into BT5933, COP, or Valor glass vials at 1 mL aliquots and put on stability. Initial control samples were immediately frozen at −70° C.
Filled vials were stored at either 5° C., 25° C., or 40° C. for either 1 week, 2 weeks, or 4 weeks. At each timepoint, (e.g., after 1 week, 2 weeks, or 4 weeks) the lipid solution was analyzed via LC-MS to determine the extent of hydrolysis and/or oxidation present.

[1] = diluted in 1X PBS pH 7.4, 5, 25, 40° C., 1, 2, 4 weeks
[2] = histidine buffer (10 mM, pH 6.0) vs PBS, 5, 25, 40° C., 1-4 weeks

degree of oxidation [2] | oxidation rate (storage in Valor glass vials vs other vials) | SMILES | % lipid intact [1] | primary degradation pathway (diluted in 1X PBS pH 7.4) | stability in BT5933 glass vials relative to COP vials | % hydrolysis [2] | % lipid intact [2]
reduced the degree of oxidation | lower oxidation rate | CCCCC/C=C\C/C=C\CCCCCCCCC(CCCCCCCC/C=C\C/C=C\CCCCC)OC(=O)CCCN(C)C [MC3, 4-(dimethylamino)-butanoic acid, (10Z,13Z)-1-(9Z,12Z)-9,12-octadecadien-1-yl-10,13-nonadecadien-1-yl ester] | lower than the % DOTAP for the same time points | oxidation | improved stability relative to COP vials | significantly reduced lipid hydrolysis of MC3 | increasing the % MC3 intact at all storage conditions tested
– | – | CCCCCCCC/C=C\CCCCCCCC(=O)OCC(C[N+](C)(C)C)OC(=O)CCCCCCC/C=C\CCCCCCCC (stereo not drawn) [DOTAP, 1,2-dioleoyl-3-trimethylammonium-propane] | decreased with increasing storage time | hydrolysis | better stability | decreased the % hydrolysis of DOTAP relative to storage in PBS | stabilized the % DOTAP intact at all storage conditions tested
